pIC50: −log10 of the molar value. The source made the active and inactive calls. The rule behind the calls is not given here.
Columns and labels:
[1] = biological target: Poly [ADP-ribose] polymerase 1 (Homo sapiens) (UniProt P09874); experiment: Induction of PARP1 degradation in triple-negative human MDA-MB-231 cells assessed as fold change in PARP1 protein expression at 10 uM incubated for 48 hrs by Western blot analysis relative to control; assay type: cell-based
MDA-MB-231 [2] = experiment: Cytotoxicity against triple-negative human MDA-MB-231 cells assessed as reduction in cell viability measured after 48 hrs by CCK8 assay; assay type: functional, cell-based; settings: MDA-MB-231, 48 h
[3] = biological target: Poly [ADP-ribose] polymerase 1 (Homo sapiens) (UniProt P09874); experiment: Induction of PARP1 degradation in triple-negative human MDA-MB-231 cells assessed as fold change in PARP1 protein expression at 0.01 uM incubated for 48 hrs by Western blot analysis relative to control; assay type: cell-based
[4] = biological target: Poly [ADP-ribose] polymerase 1 (Homo sapiens) (UniProt P09874); experiment: Induction of PARP1 degradation in triple negative human MDA-MB-468 cells assessed as fold change in PARP1 protein expression at 5 uM incubated for 48 hrs by Western blot analysis relative to control; assay type: cell-based
[5] = biological target: Poly [ADP-ribose] polymerase 1 (Homo sapiens) (UniProt P09874); experiment: Induction of PARP1 degradation in human HCC1937 cells harboring BRCA mutation assessed as fold change in PARP1 protein expression at 5 uM incubated for 48 hrs by Western blot analysis relative to control; assay type: cell-based
[6] = biological target: Poly [ADP-ribose] polymerase 1 (Homo sapiens) (UniProt P09874); experiment: Induction of PARP1 degradation in human MDA-MB-231 cells at 5 uM incubated for 48 hrs in presence 5 to 10 uM PARP1 inhibitor olaparib by Western blot analysis; assay type: cell-based
[7] = biological target: Poly [ADP-ribose] polymerase 1 (Homo sapiens) (UniProt P09874); experiment: Induction of PARP1 degradation in human MDA-MB-468 cells at 5 uM incubated for 48 hrs in presence 5 uM PARP1 inhibitor olaparib by Western blot analysis; assay type: cell-based
MDA-MB-231 [8] = experiment: Induction of apoptosis in human MDA-MB-231 cells assessed as increase in cytochrome C protein expression at 5 uM incubated for 24 to 48 hrs by Western blot analysis; assay type: functional, cell-based; settings: time 24-48 hrs
MDA-MB-231 [9] = experiment: Induction of apoptosis in human MDA-MB-231 cells assessed as decrease in Bcl2 protein expression at 5 uM incubated for 24 to 48 hrs by Western blot analysis; assay type: functional, cell-based; settings: time 24-48 hrs
MDA-MB-468 [10] = experiment: Induction of apoptosis in human MDA-MB-468 cells assessed as decrease in Bcl2 protein expression at 5 uM incubated for 48 hrs by Western blot analysis; assay type: functional, cell-based
MDA-MB-231 [11] = experiment: Induction of apoptosis in human MDA-MB-231 cells assessed as downregulation in survivin gene expression at 5 to 10 uM incubated for 24 to 48 hrs by RT-PCR analysis; assay type: functional, cell-based; settings: dose 5-10 µM, time 24-48 hrs
MDA-MB-231 [12] = experiment: Cytotoxicity against human MDA-MB-231 cells assessed as reduction in cell viability measured after 96 hrs by CCK8 assay; assay type: functional, cell-based; settings: MDA-MB-231, 96 h
MDA-MB-468 [13] = experiment: Induction of endoplasmic reticulum stress in human MDA-MB-468 cells assessed as increase in CHOP protein expression at 5 uM incubated for 48 hrs by Western blot analysis; assay type: functional, cell-based
MDA-MB-231 [14] = experiment: Induction of endoplasmic reticulum stress in human MDA-MB-231 cells assessed as increase in XBP-1s protein expression at 5 uM measured after 24 to 72 hrs by Western blot analysis; assay type: functional, cell-based; settings: time 24-72 hrs
MDA-MB-468 [15] = experiment: Induction of autophagy in human MDA-MB-468 cells assessed as upregulation in LC3B protein expression at 5 uM measured after 48 hrs by Western blot analysis; assay type: functional, cell-based
MDA-MB-231 [16] = experiment: Induction of autophagy in human MDA-MB-231 cells assessed as upregulation in LC3B gene expression at 5 to 10 uM measured after 24 to 48 hrs by RT-PCR analysis; assay type: functional, cell-based; settings: dose 5-10 µM, time 24-48 hrs
MDA-MB-231 [17] = experiment: Induction of endoplasmic reticulum stress in human MDA-MB-231 cells assessed as upregulation in ATF4 gene expression at 5 to 10 uM incubated for 24 to 48 hrs by RT-PCR analysis; assay type: functional, cell-based; settings: dose 5-10 µM, time 24-48 hrs
[18] = biological target: Poly [ADP-ribose] polymerase 1 (Homo sapiens) (UniProt P09874); experiment: Induction of PARP1 degradation in human MDA-MB-231 cells assessed as fold change in PARP1 protein expression at 5 uM pretreated with caspase I inhibitor, Ac-YVAD-cmk for 2 hrs followed by incubation with compound for 48 hrs by Western blot analysis relative to control; assay type: cell-based
[19] = biological target: Poly [ADP-ribose] polymerase 1 (Homo sapiens) (UniProt P09874); experiment: Induction of PARP1 degradation in human MDA-MB-231 cells assessed as fold change in PARP1 protein expression at 5 uM incubated for 48 hrs in presence of caspase I inhibitor, Ac-YVAD-cmk by Western blot analysis relative to control; assay type: cell-based
[20] = biological target: Poly [ADP-ribose] polymerase 1 (Homo sapiens) (UniProt P09874); experiment: Induction of PARP1 degradation in triple-negative human MDA-MB-231 cells assessed as fold change in PARP1 protein expression at 0.1 uM incubated for 24 hrs by Western blot analysis relative to control; assay type: cell-based
[21] = biological target: Poly [ADP-ribose] polymerase 1 (Homo sapiens) (UniProt P09874); experiment: Induction of PARP1 degradation in triple-negative human MDA-MB-231 cells assessed as fold change in PARP1 protein expression at 0.5 uM incubated for 24 hrs by Western blot analysis relative to control; assay type: cell-based
[22] = biological target: Poly [ADP-ribose] polymerase 1 (Homo sapiens) (UniProt P09874); experiment: Induction of PARP1 degradation in human HCC1937 cells harboring BRCA mutation assessed as fold change in PARP1 protein expression at 5 uM incubated for 24 hrs by Western blot analysis relative to control; assay type: cell-based
[23] = biological target: Poly [ADP-ribose] polymerase 1 (Homo sapiens) (UniProt P09874); experiment: Induction of PARP1 degradation in human MDA-MB-231 cells at 5 uM incubated for 48 hrs in presence of proteasome inhibitor, bortezomib by immunoblotting analysis; assay type: cell-based
[24] = biological target: Poly [ADP-ribose] polymerase 1 (Homo sapiens) (UniProt P09874); experiment: Induction of PARP1 degradation in human MDA-MB-231 cells at 5 uM incubated for 48 hrs in presence of proteasome inhibitor, carfilzomib by immunoblotting analysis; assay type: cell-based
MDA-MB-231 [25] = experiment: Induction of endoplasmic reticulum stress in human MDA-MB-231 cells assessed as upregulation in CHOP gene expression at 5 to 10 uM incubated for 24 to 48 hrs by RT-PCR analysis; assay type: functional, cell-based; settings: dose 5-10 µM, time 24-48 hrs
MDA-MB-231 [26] = experiment: Induction of apoptosis in human MDA-MB-231 cells assessed as apoptotic body formation at 5 uM incubated for 24 to 48 hrs by transmission electron microscopy; assay type: functional, cell-based; settings: time 24-48 hrs
[27] = biological target: Poly [ADP-ribose] polymerase 1 (Homo sapiens) (UniProt P09874); experiment: Induction of PARP1 degradation in human MDA-MB-468 cells assessed as fold change in PARP1 protein expression at 5 uM pretreated with caspase I inhibitor, Ac-YVAD-cmk for 2 hrs followed by incubation with compound for 48 hrs by Western blot analysis relative to control; assay type: cell-based
[28] = biological target: Poly [ADP-ribose] polymerase 1 (Homo sapiens) (UniProt P09874); experiment: Induction of PARP1 degradation in human MDA-MB-468 cells assessed as fold change in PARP1 protein expression at 5 uM pretreated for 2 hrs with pan-caspase inhibitor, Z-VAD-FMK followed by incubation with compound for 48 hrs by Western blot analysis relative to control; assay type: cell-based

Chain of Poly [ADP-ribose] polymerase 1 (Homo sapiens) (P09874 whole entry): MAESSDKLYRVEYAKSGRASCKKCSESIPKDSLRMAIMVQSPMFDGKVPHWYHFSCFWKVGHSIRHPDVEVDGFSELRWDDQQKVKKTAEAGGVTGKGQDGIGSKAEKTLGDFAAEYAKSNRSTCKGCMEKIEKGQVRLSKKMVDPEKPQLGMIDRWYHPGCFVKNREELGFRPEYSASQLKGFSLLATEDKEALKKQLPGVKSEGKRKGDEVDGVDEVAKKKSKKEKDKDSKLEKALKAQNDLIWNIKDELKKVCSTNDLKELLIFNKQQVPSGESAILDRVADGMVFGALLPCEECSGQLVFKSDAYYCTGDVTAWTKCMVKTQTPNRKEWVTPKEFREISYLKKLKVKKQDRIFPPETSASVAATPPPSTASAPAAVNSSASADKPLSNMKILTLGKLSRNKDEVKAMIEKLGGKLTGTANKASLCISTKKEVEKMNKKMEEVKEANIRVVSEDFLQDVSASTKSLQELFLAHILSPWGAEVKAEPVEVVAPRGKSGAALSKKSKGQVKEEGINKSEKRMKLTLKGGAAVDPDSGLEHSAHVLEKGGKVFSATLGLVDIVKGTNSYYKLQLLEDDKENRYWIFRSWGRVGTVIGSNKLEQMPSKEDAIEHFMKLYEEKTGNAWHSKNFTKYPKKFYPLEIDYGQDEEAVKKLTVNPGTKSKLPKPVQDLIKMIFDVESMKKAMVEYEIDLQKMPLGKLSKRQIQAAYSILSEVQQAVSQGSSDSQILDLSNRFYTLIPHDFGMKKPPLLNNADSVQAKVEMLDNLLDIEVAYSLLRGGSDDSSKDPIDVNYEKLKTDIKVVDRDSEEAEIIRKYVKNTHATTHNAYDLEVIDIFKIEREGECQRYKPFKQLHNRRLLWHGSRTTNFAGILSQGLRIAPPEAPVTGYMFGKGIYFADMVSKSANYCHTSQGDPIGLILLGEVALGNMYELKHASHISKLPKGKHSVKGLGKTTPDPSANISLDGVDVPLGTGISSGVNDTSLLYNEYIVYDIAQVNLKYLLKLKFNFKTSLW

## O=C(CC1c2ccccc2-c2ccccc21)N1CCN(C(=O)c2cc(Cc3n[nH]c(=O)c4ccccc34)ccc2F)CC1
[1]
  fold change (FC): 0.1
MDA-MB-231 [2]
  pIC50: 4.97
[3]
  fold change (FC): 0.7
[4]
  fold change (FC): 0.3
[5]
  fold change (FC): 0
[6]
  Activity: inactive
[7]
  Activity: inactive
MDA-MB-231 [8]
  Activity: Active
MDA-MB-231 [9]
  Activity: Active
MDA-MB-468 [10]
  Activity: Active
MDA-MB-231 [11]
  Activity: Active
MDA-MB-231 [12]
  pIC50: 5.68
MDA-MB-468 [13]
  Activity: Active
MDA-MB-231 [14]
  Activity: Active
MDA-MB-468 [15]
  Activity: Active
MDA-MB-231 [16]
  Activity: Active
MDA-MB-231 [17]
  Activity: Active
[18]
  fold change (FC): 0.3
[19]
  fold change (FC): 0.3
[20]
  fold change (FC): 0.9
[21]
  fold change (FC): 0.8
[22]
  fold change (FC): 0.3
[23]
  Activity: inactive
[24]
  Activity: inactive
MDA-MB-231 [25]
  Activity: Active
MDA-MB-231 [26]
  Activity: Active
[27]
  fold change (FC): 0.2
[28]
  fold change (FC): 0.4

Source: ChEMBL document CHEMBL4765403, “Augmentation of the antitumor effects of PARP inhibitors in triple-negative breast cancer via degradation by hydrophobic tagging modulation” (Eur J Med Chem, 2020)
